In patent US10881060B2, “Endophytes and related methods” (Agriculture Victoria Services PTY LTD, priority 2010, dated 2021):

Test system: N. lolii (strain ST) mycelia
Test: Colchicine kill curve of endophyte mycelia
Assay type: cell-based
Settings: grown 21 days
Method: Experiments were conducted to determine the range of colchicine concentrations in which the mycelia of the fungal endophyte N. lolii (strain ST) would grow successfully. Mycelia were grown in colchicine concentrations ranging from 0% to 1% for 21 days and monitored for growth (FIG. 15). At greater than or equal to 0.2% colchicine mycelium growth halted whereas at 0.1% or less colchicine mycelium growth was prolific.

With COc1cc2c(c(OC)c1OC)-c1ccc(OC)c(=O)cc1[C@@H](NC(C)=O)CC2 [colchicine] the “Colchicine concentration at which mycelium growth halted” value was “greater than or equal to 0.2%” and the “Colchicine concentration at which mycelium growth was prolific” value was no more than 0.1%.
